From the NIST ThermoML archive (doi:10.1016/j.jct.2019.02.011)

Experiment: xn = mol fraction of the nth substance listed
Conditions: Liquid, Vibrating tube method

COC(=O)OC [dimethyl carbonate] + CCCO
mass density [kg/m3]
Conditions	100 kPa	5000 kPa	10000 kPa	15000 kPa	20000 kPa	25000 kPa	30000 kPa	35000 kPa	40000 kPa
303.15 K, x1 = 0.0273	–	–	–	–	–	–	–	827.45	830.37
303.15 K, x1 = 0.0506	–	–	–	–	–	–	–	834.14	837.11
303.15 K, x1 = 0.0755	–	–	–	–	–	–	–	841.27	844.3
303.15 K, x1 = 0.1007	–	–	–	–	–	–	–	848.4	851.44
303.15 K, x1 = 0.1495	–	–	–	–	–	–	–	862.14	865.25
303.15 K, x1 = 0.2003	–	–	–	–	–	–	–	876.43	879.56
303.15 K, x1 = 0.2529	–	–	–	–	–	–	–	891.09	894.28
303.15 K, x1 = 0.2993	–	–	–	–	–	–	–	903.84	907.1
303.15 K, x1 = 0.3497	–	–	–	–	–	–	–	917.64	920.92
303.15 K, x1 = 0.401	–	–	–	–	–	–	–	931.51	934.85
303.15 K, x1 = 0.4509	–	–	–	–	–	–	–	944.84	948.26
303.15 K, x1 = 0.5002	–	–	–	–	–	–	–	958	961.43
303.15 K, x1 = 0.5498	–	–	–	–	–	–	–	971.12	974.61
303.15 K, x1 = 0.5996	–	–	–	–	–	–	–	984.2	987.76
303.15 K, x1 = 0.6499	–	–	–	–	–	–	–	997.34	1000.93
303.15 K, x1 = 0.7006	–	–	–	–	–	–	–	1010.45	1014.1
303.15 K, x1 = 0.7471	–	–	–	–	–	–	–	1022.39	1026.05
303.15 K, x1 = 0.7989	–	–	–	–	–	–	–	1035.67	1039.35
303.15 K, x1 = 0.8491	–	–	–	–	–	–	1044.84	1048.52	1052.22
303.15 K, x1 = 0.8993	–	–	–	–	–	–	1057.6	1061.28	1065.05
303.15 K, x1 = 0.9249	–	–	–	–	–	–	1064.01	1067.75	1071.52
303.15 K, x1 = 0.9489	–	–	–	–	–	–	1070.02	1073.76	1077.54
303.15 K, x1 = 0.9743	–	–	–	–	–	–	1076.38	1080.13	1083.97
303.15 K, x1 = 1	–	–	–	–	–	–	1082.9	1086.6	1090.4
308.15 K, x1 = 0.0273	798.56	802.69	806.56	810.18	813.81	817.21	820.58	823.72	826.71
308.15 K, x1 = 0.0506	804.88	809.05	812.98	816.65	820.28	823.74	827.15	830.34	833.34
308.15 K, x1 = 0.0755	811.69	815.86	819.84	823.57	827.25	830.71	834.12	837.36	840.41
308.15 K, x1 = 0.1007	818.55	822.77	826.76	830.48	834.21	837.72	841.19	844.43	847.53
308.15 K, x1 = 0.1495	831.9	836.17	840.21	844.04	847.82	851.38	854.86	858.14	861.25
308.15 K, x1 = 0.2003	845.6	849.97	854.07	857.95	861.78	865.4	868.98	872.31	875.47
308.15 K, x1 = 0.2529	859.71	864.12	868.28	872.21	876.1	879.78	883.42	886.79	890
308.15 K, x1 = 0.2993	872.12	876.53	880.75	884.73	888.67	892.4	896.05	899.42	902.69
308.15 K, x1 = 0.3497	885.38	889.84	894.11	898.2	902.19	905.97	909.68	913.1	916.37
308.15 K, x1 = 0.401	898.75	903.3	907.64	911.77	915.81	919.66	923.42	926.84	930.17
308.15 K, x1 = 0.4509	911.74	916.34	920.73	924.87	928.97	932.87	936.64	940.1	943.48
308.15 K, x1 = 0.5002	924.45	929.1	933.55	937.74	941.84	945.79	949.62	953.13	956.52
308.15 K, x1 = 0.5498	937.17	941.82	946.33	950.57	954.72	958.68	962.57	966.12	969.52
308.15 K, x1 = 0.5996	949.8	954.5	959.02	963.36	967.52	971.54	975.48	979.03	982.49
308.15 K, x1 = 0.6499	962.55	967.29	971.88	976.22	980.43	984.5	988.45	992.05	995.51
308.15 K, x1 = 0.7006	975.36	980.15	984.79	989.19	993.45	997.53	1001.49	1005.08	1008.6
308.15 K, x1 = 0.7471	986.95	991.79	996.49	1000.94	1005.2	1009.34	1013.35	1016.99	1020.52
308.15 K, x1 = 0.7989	999.88	1004.72	1009.48	1013.98	1018.3	1022.49	1026.51	1030.15	1033.73
308.15 K, x1 = 0.8491	1012.38	1017.27	1022.04	1026.54	1030.91	1035.16	1039.19	1042.88	1046.46
308.15 K, x1 = 0.8993	1024.9	1029.78	1034.61	1039.16	1043.54	1047.79	1051.88	1055.57	1059.15
308.15 K, x1 = 0.9249	1031.23	1036.11	1040.95	1045.55	1049.98	1054.24	1058.33	1062.01	1065.61
308.15 K, x1 = 0.9489	1037.12	1042.05	1046.89	1051.5	1055.93	1060.19	1064.28	1068.02	1071.61
308.15 K, x1 = 0.9743	1043.46	1048.4	1053.24	1057.85	1062.28	1066.54	1070.69	1074.37	1078.02
308.15 K, x1 = 1	1049.91	1054.84	1059.69	1064.3	1068.73	1073	1077.1	1080.78	1084.38
